{
  "source": "patent US20100098657A1",
  "about": "“Method of Treating Cancer with Immunomodulatory Compounds and IgG” (priority 2007, published 2010)",
  "key": {"[1]": {"test_system": "Src homology-2 containing inositol 5′-phosphatase 1 (phospho-SHIP-1)", "test": "Immunoblot analysis of phospho-SHIP-1", "assay_type": "cell-based", "conditions": "IL-12 plus IgG; lenalidomide 10 μM", "description": "FIG. 7 is a panel of bar graphs showing the quantitation of an immunoblot comparison of cells treated with either IL-12 alone, IgG alone, IL-12 plus IgG, or IL-12 plus IgG plus lenalidomide (at 0.1 μM to 10 μM).\nSHIP-1 is a negative regulator of cell proliferation, survival, and activation and also a negative regulator of Fc-γ and cytokine receptor-mediated signaling (Parihar et al., 2005, Cancer Res. 65:9099-9107). The inhibition of phospho-SHIP-1 increases IFN-γ release following NK cell stimulation with IgG and IL-12 (Parihar et al., 2005, Cancer Res. 65:9099-9107, which is incorporated by reference herein in its entirety) and thus may contribute to the mechanism of action of lenalidomide."}, "[2]": {"test_system": "Rituximab-coated Farage cells", "test": "Monocyte-mediated lysis (ADCC) of Rituximab-coated Farage cells", "assay_type": "cell-based, human", "conditions": "E:T 50:1; lenalidomide at 10 μM; from 5%; no IL-2", "description": "NK cells and monocytes were isolated from fresh, buffy-coated, whole blood by 30-minute incubation with RossetteSep cocktail (StemCell Technologies, Inc.) followed by Ficoll-Hypaque density gradient centrifugation. CD56+ NK cells were isolated to ˜85% purity and CD14+ monocytes were isolated to ˜80% purity as determined by flow cytometry.\n(§1) Preparation of Rituximab-coated target cancer cells: Various NHL cell lines (Namalwa, Raji, Farage, and Jeko-1) were treated with 20 μg/mL Rituximab (Rituximab, Genentech, Inc.) for 30 minutes at 37° C. Excess unbound Rituximab was then removed by a washing step.\n(§2) Cytotoxicity analysis: NK cell cytotoxicity against the tumor cell lines was analyzed using a standard lactate dehydrogenase release assay (CytoTox 96 Non-radioactive Cytotoxicity Assay, Promega) to measure ADCC in a 50 μL aliquot of supernatant. The experimental release was corrected by subtraction of the spontaneous release of effector cells at the corresponding dilution. Spontaneous release from target cells alone was <15% of the maximum release as determined with target cells lysed in 1% Triton X-100.\nDetermination of effector: target ratio: Specific lysis for each effector-to-target (E:T) cell ratio was calculated using the following formula: % specific lysis=([experimental release−spontaneous release]/[maximum release−spontaneous release])×100. […]"}, "[3]": {"test_system": "Rituximab-coated Raji cells", "test": "ADCC assay: NK cell specific lysis of Rituximab-coated Raji cells", "assay_type": "cell-based, human", "conditions": "for EC50: Homo sapiens, Raji", "description": "Preparation of NK cells: Purified NK cells (5×10^4) were seeded in 96-well U-bottom plates in 100 μL of 10% RPMI-1640 medium, supplemented with human AB+ serum. […] The cells were then incubated at 37° C. overnight.\nas §1\nAddition of Rituximab-coated target cells to NK cells: The Rituximab-coated target cells (5×103/100 μL/well) were added to the pretreated effector NK cells at a ratio of 10:1. The cells were then co-incubated for 4 hours at 37° C.\nas §2\nDetermination of effector: target ratio: Specific lysis for each effector-to-target (E:T) cell ratio was calculated using the following formula: % specific lysis=([experimental release−spontaneous release]/[maximum release−spontaneous release])×100.\nEnhancement of NK cell cytotoxicity by immunomodulatory compounds lenalidomide and pomalidomide was assessed following procedures substantially similar to those described in Section 6.3, above."}, "[4]": {"test_system": "NK cells", "test": "NK cell expression of growth factors/chemokines (IL-2, IgG, lenalidomide)", "assay_type": "cell-based, human", "conditions": "lenalidomide 0.1, 1 or 10 μM with IL-2, IgG", "description": "As shown herein, immunomodulatory compounds, either alone or in combination with other agents, can alter the expression of several growth factors."}},
  "data": [
    {"molecule": "Nc1cccc2c1CN(C1CCC(=O)NC1=O)C2=O", "note": "(stereo not shown) [lenalidomide, 1-oxo-2-(2,6-dioxopiperidin-3-yl)-4-aminoisoindoline]", "values": [
      {"measurement": "levels of phospho-SHIP-1", "setting": "[1]", "value": "decreased"},
      {"measurement": "monocyte-mediated lysis (killing activity)", "setting": "[2]", "value": 20, "unit": "%"},
      {"measurement": "increase of NK cell specific lysis", "setting": "[3]; E:T=10:1, presence of IL-2 or IL-12, vs Rituximab-only treated cells", "value": 2, "unit": "fold"},
      {"measurement": "EC50", "setting": "[3]; IL-2, E:T=10:1", "value": 100, "unit": "nM"},
      {"measurement": "EC50", "setting": "[3]; IL-12, E:T=10:1", "value": 140, "unit": "nM"},
      {"measurement": "NK cell cytotoxicity", "setting": "[3]; presence of IL-2 (FIG. 8B/9B)", "value": "significantly increases"},
      {"measurement": "NK cell cytotoxicity", "setting": "[3]; presence of IL-12 (FIG. 8E/9E)", "value": "significantly increases"},
      {"measurement": "NK cell expression of GM-CSF", "setting": "[4]", "value": "increased"},
      {"measurement": "NK cell expression of IL-6", "setting": "[4]", "value": "decreased"},
      {"measurement": "NK cell expression of IL-8", "setting": "[4]", "value": "increased"},
      {"measurement": "NK cell expression of IP-10", "setting": "[4]", "value": "increased"},
      {"measurement": "NK cell expression of RANTES", "setting": "[4]", "value": "increased"},
      {"measurement": "NK cell expression of monocyte chemotactic protein-1 (MCP-1)", "setting": "[4]", "value": "increased"}
    ]}
  ]
}
